Here are results for 59 compounds from ChEMBL document CHEMBL1268905, “3D-QSAR and docking studies on pyrazolo[4,3-h]qinazoline-3-carboxamides as cyclin-dependent kinase 2 (CDK2) inhibitors” (Bioorg Med Chem Lett, 2010).

A word on the IC50: it is the concentration that gives 50% inhibition. A high value points to weaker potency.

In this test the target is Cyclin-dependent kinase 2/cyclin A (Homo sapiens, UniProt P24941). In words: Inhibition of CDK2/cyclin A. It is filed as protein-complex assay.
As for `NC(=O)c1cn(Cc2ccccc2)c2c1CCc1cnc(NC3CCCC3)nc1-2`, the concentration for half-maximal inhibition (IC50) is 23 nM.

With `NC(=O)c1cn(-c2ccccc2)c2c1CCc1cnc(NC3CCCC3)nc1-2`, it took 20 nM to reach half-maximal inhibition (IC50).

`CN1CCN(c2ccc(Nc3ncc4c(n3)-c3c(c(C(N)=O)cn3C)C(C)(C)C4)cc2)CC1` had a concentration for half-maximal inhibition (IC50) of 17 nM.

`NC(=O)c1cn(-c2ccccn2)c2c1CCc1cnc(NC3CCCC3)nc1-2` showed a half-maximal inhibitory concentration (IC50) of 52 nM.

On to `COc1ccc(-n2cc(C(N)=O)c3c2-c2nc(NC4CCCC4)ncc2CC3)cc1`, for which the IC50 was 6 nM.

`CNC(=O)c1cn(C)c2c1C(C)(C)Cc1cnc(Nc3cccc(N4CCN(C)CC4)c3)nc1-2` had an IC50 of 31 nM.

Compound `CNC(=O)c1cn(C)c2c1C(C)(C)Cc1cnc(Nc3ccc(N4CCOCC4)cc3)nc1-2` gave an IC50 of 137 nM.

In turn, `NC(=O)c1cn(-c2ccc(S(N)(=O)=O)cc2)c2c1CCc1cnc(NC3CCCC3)nc1-2` showed a half-inhibitory concentration (IC50) of 5 nM.

In turn, `NC(=O)c1cn(CCO)c2c1CCc1cnc(NC3CCCC3)nc1-2` had an IC50 of 8 nM.

`CNC(=O)c1cn(C)c2c1C(C)(C)Cc1cnc(Nc3cccc(N4CCOCC4)c3)nc1-2` had a 50% inhibitory concentration (IC50) of 248 nM.

Consider `CNC(=O)c1cn(C)c2c1C(C)(C)Cc1cnc(Nc3ccc(OC4CCN(C)CC4)cc3)nc1-2`, for which the half-inhibitory concentration (IC50) is 29 nM.

Turning to `NC(=O)c1cn(CC(F)(F)F)c2c1CCc1cnc(NC3CCCC3)nc1-2`, half-maximal inhibition (IC50) required 5 nM.

The compound `CN1CCC(n2cc(C(N)=O)c3c2-c2nc(NC4CCCC4)ncc2CC3)CC1` had an IC50 of 6 nM.

In turn, `CNC(=O)c1cn(C)c2c1C(C)(C)Cc1cnc(Nc3cccc(OC4CCN(C)CC4)c3)nc1-2` had an IC50 of 47 nM.

As to `CNC(=O)c1cn(C)c2c1C(C)(C)Cc1cnc(Nc3ccc(CN4CCN(C)CC4)cc3)nc1-2`, the half-inhibitory concentration (IC50) was 55 nM.

Compound `CNC(=O)c1cn(C2CCN(C)CC2)c2c1CCc1cnc(NC3CCCC3)nc1-2` gave an IC50 of 59 nM.

In turn, `CC(=O)N1CCC(n2cc(C(N)=O)c3c2-c2nc(NC4CCCC4)ncc2CC3)CC1` gave a half-maximal inhibitory concentration (IC50) of 7 nM.

Consider `CNC(=O)c1cn(C)c2c1C(C)(C)Cc1cnc(Nc3cccc(CN4CCN(C)CC4)c3)nc1-2`, for which the 50% inhibitory concentration (IC50) is 59 nM.

`CNC(=O)c1cn(C)c2c1C(C)(C)Cc1cnc(Nc3ccc(CN4CCOCC4)cc3)nc1-2` showed an IC50 of 36 nM.

On to `CNC(=O)c1cn(C)c2c1CCc1cnc(NC3CCN(C)CC3)nc1-2`, for which the 50% inhibitory concentration (IC50) was 4580 nM.

On to `CNC(=O)c1cn(C)c2c1C(C)(C)Cc1cnc(Nc3cccc(CN4CCOCC4)c3)nc1-2`, for which half-maximal inhibition (IC50) was put at 160 nM.

In the case of `CNC(=O)c1cn(C)c2c1C(C)(C)Cc1cnc(Nc3ccc(N(C)C)cc3)nc1-2`, 59 nM corresponded to half-maximal inhibition (IC50).

For `CNC(=O)c1cn(C)c2c1CCc1cnc(NC3CCN(C(C)=O)CC3)nc1-2`, half-maximal inhibition (IC50) was put at 32 nM.

Consider `Cn1cc(C(N)=O)c2c1-c1nc(NC3CCN(C(=O)c4ccccc4)CC3)ncc1CC2`, for which the half-inhibitory concentration (IC50) is 3 nM.

In the case of `CNC(=O)c1cn(C)c2c1C(C)(C)Cc1cnc(Nc3cccc(N(C)C)c3)nc1-2`, the concentration for half-maximal inhibition (IC50) is 220 nM.

For the compound `CNC(=O)c1cn(C)c2c1C(C)(C)Cc1cnc(Nc3ccc(CN(C)C)cc3)nc1-2`, the IC50 was 35 nM.

`Cn1cc(C(N)=O)c2c1-c1nc(NCc3ccccc3)ncc1CC2`: half-maximal inhibition (IC50) was put at 51.1 nM.

The compound `CNC(=O)c1cn(C)c2c1CCc1cnc(NC3CCN(C(=O)c4ccccc4)CC3)nc1-2` gave an IC50 of 25 nM.

For `CN1CCN(C(=O)N2CCC(Nc3ncc4c(n3)-c3c(c(C(N)=O)cn3C)CC4)CC2)CC1`, the IC50 was 12 nM.

`CNC(=O)c1cn(C)c2c1C(C)(C)Cc1cnc(Nc3cccc(CN(C)C)c3)nc1-2` had an IC50 of 83 nM.

As to `COc1cccc(CNc2ncc3c(n2)-c2c(c(C(N)=O)cn2C)CC3)c1`, inhibition was half-maximal at 65.9 nM (IC50).

As to `COc1ccc(CNc2ncc3c(n2)-c2c(c(C(N)=O)cn2C)CC3)cc1`, the IC50 was 57.9 nM.

Consider `CNC(=O)c1cn(C)c2c1CCc1cnc(NC3CCN(C(=O)N4CCN(C)CC4)CC3)nc1-2`, for which the IC50 was 1120 nM.

Take `CCOC(=O)N1CCC(Nc2ncc3c(n2)-c2c(c(C(N)=O)cn2C)CC3)CC1`: the 50% inhibitory concentration (IC50) was 1 nM.

In turn, `Cn1cc(C(N)=O)c2c1-c1nc(NCc3ccc(Br)cc3)ncc1CC2` gave an IC50 of 80.9 nM.

Turning to `CC(=O)Nc1ccc(CNc2ncc3c(n2)-c2c(c(C(N)=O)cn2C)CC3)cc1`, the half-maximal inhibitory concentration (IC50) is 13 nM.

In turn, `CCOC(=O)N1CCC(Nc2ncc3c(n2)-c2c(c(C(=O)NC)cn2C)CC3)CC1` gave an IC50 of 57.9 nM.

For the compound `Cn1cc(C(N)=O)c2c1-c1nc(NC3CCN(S(C)(=O)=O)CC3)ncc1CC2`, the midpoint of inhibition, the IC50, lay at 1 nM.

In turn, `Cn1cc(C(N)=O)c2c1-c1nc(NCc3ccc(S(C)(=O)=O)cc3)ncc1CC2` showed an IC50 of 38 nM.

For `CN1CCN(c2cccc(CNc3ncc4c(n3)-c3c(c(C(N)=O)cn3C)CC4)c2)CC1`, inhibition was half-maximal at 104 nM (IC50).

On to `Cn1cc(C(N)=O)c2c1-c1nc(NC3CCN(S(=O)(=O)c4ccccc4)CC3)ncc1CC2`, for which the IC50 was 4 nM.

Consider `CN1CCN(c2ccc(CNc3ncc4c(n3)-c3c(c(C(N)=O)cn3C)CC4)cc2)CC1`, for which it took 17 nM to reach half-maximal inhibition (IC50).

Turning to `Cn1cc(C(N)=O)c2c1-c1nc(NCc3ccncc3)ncc1CC2`, the concentration for half-maximal inhibition (IC50) is 21 nM.

Compound `CNC(=O)c1cn(C)c2c1CCc1cnc(NC3CCN(S(=O)(=O)c4ccccc4)CC3)nc1-2` gave a half-maximal inhibitory concentration (IC50) of 5 nM.

`Cn1cc(C(N)=O)c2c1-c1nc(NCc3cccnc3)ncc1CC2` had an IC50 of 21 nM.

Compound `Cn1cc(C(N)=O)c2c1-c1nc(NCc3ccccn3)ncc1CC2` had an IC50 of 86.9 nM.

As to `Cn1cc(C(=O)NCCO)c2c1-c1nc(Nc3ccccc3)ncc1CC2`, the IC50 was 74 nM.

Compound `Cn1cc(C(N)=O)c2c1-c1nc(NCCN3CCOCC3)ncc1CC2` showed an IC50 of 209 nM.

`Cn1cc(C(N)=O)c2c1-c1nc(NCCO)ncc1CC2` had a concentration for half-maximal inhibition (IC50) of 19 nM.

Turning to `CCN1CCC(Nc2ncc3c(n2)-c2c(c(C(N)=O)cn2C)CC3)CC1`, it took 149 nM to reach half-maximal inhibition (IC50).

With `Cn1cc(C(=O)NCc2ccccc2)c2c1-c1nc(Nc3ccccc3)ncc1CC2`, the IC50 was 1050 nM.

Compound `CNC(=O)c1cn(C)c2c1CCc1cnc(NC3CCCC3)nc1-2` showed a half-maximal inhibitory concentration (IC50) of 97.1 nM.

Consider `CC(CN(C)C)NC(=O)c1cn(C)c2c1CCc1cnc(NC3CCCC3)nc1-2` (centres undefined), for which half-maximal inhibition (IC50) was put at 1760 nM.

`CN1CCN(c2ccc(Nc3ncc4c(n3)-c3c(c(C(N)=O)cn3C)CC4)cc2)CC1` showed a half-inhibitory concentration (IC50) of 2 nM.

`CN1CCN(c2cccc(Nc3ncc4c(n3)-c3c(c(C(N)=O)cn3C)CC4)c2)CC1` had an IC50 of 1 nM.

In the case of `CN(O)C(=O)c1cn(C)c2c1CCc1cnc(NC3CCCC3)nc1-2`, the IC50 was 175 nM.

Consider `Cn1cc(C(=O)N(O)Cc2ccccc2)c2c1-c1nc(NC3CCCC3)ncc1CC2`, for which the IC50 is 1370 nM.

As for `Cn1cc(C(N)=O)c2c1-c1nc(Nc3ccc(N4CCOCC4)cc3)ncc1CC2`, the half-inhibitory concentration (IC50) was 14 nM.

`Cn1cc(C(N)=O)c2c1-c1nc(Nc3ccccc3)ncc1CC2(C)C` gave an IC50 of 24 nM.
